This is an account of results in US11098083B2, “Peptide that regulates fat metabolism and method for regulating fat metabolism” (SHENZHEN INSTITUTES OF ADVANCED TECHNOLOGY, priority 2017, dated 2021).

Ends that are not written are not given here.

For experiment [1], the system named is wild-type C57BL/6 mice. Briefly: intestinal fat (olive oil) absorption in normal mice, i.p. injection of peptide. The format is in vivo. The conditions noted are these: FIG. 5. As to the method:
S140: effect of acute gavage of ISAP1 on intestinal fat absorption in normal mice may be studied.
Six-week-old male wild-type C57BL/6 mice may be divided into four groups, three in each group, three out of the four groups of mice may be intestinally perfused with 200 μl sterilized olive oil solution (Sigma), and the other one group of mice may be intestinally perfused with normal saline solution to be a negative control group. After 30 minutes, two groups of the mice treated with sterilized olive oil solution may be i.p. injected with OCN (6 pmol/g) and ISAP1 (6 pmol/g) respectively, and the other one group of the mice treated with sterilized olive oil solution may be i.p. injected with normal saline solution to be a saline control group. Further the mice of the negative control group solution may also be i.p. injected with normal saline solution to be the negative group. The mice of all four groups may be sacrificed 30 minutes later. Small intestine samples may be collected. The small intestine sample may be taken from a duodenum to a caecum, divided into 3 segments of equal length. After washing with pre-cooled normal saline solution, a segment close to the duodenum may be frozen and sliced, stained with oil red O and observed for fat absorption.

For experiment [2], the system named is DIO-NAFLD mice. Briefly: i.p. injection of ISAP1 in DIO-NAFLD mice: liver functions and blood lipids. The note with it: daily i.p. 6 weeks, even at 2 pmol/g, compared with HFD control group, FIG. 4. The format is in vivo, C57BL/6 mice. The text has this:
S123: the effect of i.p. injection of ISAP1 on liver functions and blood lipids in mice may be studied.
In S121, before sacrificing the mice, blood of each mouse may be collected from a tail vein and detected for a level of alanine aminotransferases (ALT), a level of alkaline phosphatases (ALP), a level of aspartate aminotransferases (AST), a serum level of cholesterols, a level of low-density lipoprotein (LDL), and a level of high-density lipoprotein (HDL) using a Roche […] (model cobas 8000) as per manufacturer's instructions.

Experiment [3] has as its system HFD mice. Kind of experiment: gavage of peptides in HFD mice: triglyceride in feces, week 7. It is filed as in vivo, C57BL/6 mice. The note with it: gavage 2 pmol/g, feces of week 7, compared with HFD control group, FIG. 7B. As to the method:
Feces of each mouse may be collected in week 7, baked at 60° C. for 3 days to ensure complete dryness. Then, 1 mg of the feces may be collected and soaked in 1 ml of a mixed solution consisting of chloroform and methanol in a ratio of 2:1. The soaked feces may then be disrupted with a tissue homogenizer and centrifuged to obtain a supernatant. The supernatant may be detected for triglyceride by the Roche blood biochemical analyzer. Experimental results are shown in FIG. 7B. **: P<0.01, ***: P<0.001.
Feces of the mice may be collected in the 7th week of the experiment and baked at 60° C. for 3 days to ensure complete dryness. Then, 1 mg of the feces may be weighed and soaked in 1 ml of a mixed solution containing chloroform and methanol in a ratio of 2:1. The feces with the mixed solution may be disrupted by a tissue homogenizer and centrifuged to obtain a supernatant. The supernatant may be detected for triglyceride by the Roche blood biochemical analyzer.
Feces of the mice may be collected in the 7th week of the experiment and baked at 60° C. for 3 days to ensure complete dryness. Then, 1 mg of the feces may be weighed and soaked in 1 ml of a mixed solution containing chloroform and methanol in a ratio of 2:1.The feces with the mixed solution may be disrupted by a tissue homogenizer and centrifuged to obtain a supernatant. The supernatant may be detected for triglyceride by the Roche blood biochemical analyzer.
Feces of each mouse may be collected in the 7th week of the experiment, and baked at 60° C. for 3 days to ensure complete dryness. 1 mg of the feces may be weighed and soaked in 1 ml of a mixed solution containing chloroform and methanol in a ratio of 2:1. The feces in the mixed solution may be disrupted by a tissue homogenizer and centrifuged to obtain a supernatant. The supernatant may be detected for triglyceride by the Roche blood biochemical analyzer.

Experiment [4] deals with HFD mice. Briefly: gavage of peptides in HFD mice for 7 weeks: body weight. The format is in vivo, C57BL/6 mice. The note with it: gavage 2 pmol/g of body weight for 7 weeks, compared with HFD control group, FIG. 7A. The source says:
Six-week-old male wild-type C57BL/6 mice may be divided into 6 groups, 6 mice in each group. Group #1 may be provided with ND, and groups #2 to #6 may be provided with HFD. Group #2 may be treated as a HFD control group. Groups #3 to #6 may be experimental groups, and mice ingroups #3 to #6 may be gavaged with OCN, ISAP1, ISAP2, and ISAP3 respectively at 2 pmol/g of body weight for 7 weeks. Body weight of each mouse may be monitored and measured once a week.
Six-week-old male wild-type C57BL/6 mice may be divided into 6 groups, 6 in each group. Group #1 may be provided with ND to be a ND control group, and groups #2 to #6 may be provided with HFD. Group #2 may be treated as a HFD control group. Groups #3 to #6 may be treated as experimental groups and may be gavaged with OCN, ISAP1, ISAP2, and ISAP3 respectively at 2 pmol/g of body weight daily for 7 weeks. Body weight may be monitored and measured once a week.
Six-week-old male wild-type C57BL/6 mice may be divided into 6 groups, 6 in each group. Group #1 may be provided with ND to be a ND control group, groups #2 to #6 may be provided with HFD. Group #2 may be treated as a HFD control group. Groups #3 to #6 may be treated as experimental groups, and may be gavaged with OCN, ISAP1, ISAP2, and ISAP3 respectively at 2 pmol/g of body weight daily for 7 weeks. A body weight of each mouse may be monitored and measured once a week.

In experiment [5] the test system is DIO-NAFLD mice. Briefly: i.p. injection of ISAP1 in DIO-NAFLD mice: liver fat (appearance, oil red O staining). It is filed as in vivo, C57BL/6 mice. The conditions noted are these: daily i.p. injection 6 weeks. The text has this: S122: effect of i.p. injection of ISAP1 on the liver may be studied.
In S121, livers may be collected while collecting the adipose tissues, and appearance of the livers may be photographed. A part of liver tissues may be taken for frozen sectioning, stained with oil red O for microscopic observation, and then a same area may be quantitatively analyzed. […] The […] the color is, the higher the fat content is contained.

Regarding YLGASVPSPDPLEPT [ISAP1], the “mouse intestinal absorption of the olive oil (oil red O-positive area / total area of intestinal villi)” value in experiment [1] (6 pmol/g i.p. 30 min after 200 μl olive oil, compared with saline control group) is “effectively reduce”. Moreover, in experiment [1] (6 pmol/g i.p., OCN 6 pmol/g), the “reduction in olive oil absorption compared with OCN treatment” value is on record as “even more effective than the OCN treatment”. Also, in experiment [2], the “level of alanine aminotransferases (ALT) in blood” value was “effective in reducing”, the “level of alkaline phosphatases (ALP) in blood” value is on record as “effective in reducing”, the “level of aspartate aminotransferases (AST) in blood” value is “effective in reducing” and the “level of low-density lipoprotein (LDL)” value is listed as “effective in reducing”. The “serum level of cholesterols” value in experiment [2] is given as “effective in reducing”. In addition, the “content (level) of triglyceride in the feces” value in experiment [3] is reported as “significantly increased”. The body weight result in experiment [4] is “significant weight loss”. Also, in experiment [5] (compared with HFD control group, FIG. 3C), the “proportion of fat in the liver (oil red O staining)” value is recorded as “decreased significantly”. Besides, in experiment [5] (vs HFD+carrier, FIG. 3A), the “liver fat accumulation (liver appearance)” value is reported as “significantly reduce the liver fat accumulation”.
